Columns and labels:
Assay type in all cases: cell-based
human ASCs [1] = assay: Osteogenic differentiation of human ASCs modulated by E2 (Example 1)
Text: (§1) Human bone marrow MSCs were provided by the Center for Gene Therapy of Tulane University. The MSCs were isolated from bone marrow cells donated by a healthy adult volunteer. The passage-1 cells were recovered and expanded by culture in a basic medium composed of DMEM, 10% FBS and 1% antibiotic-antimycotic. Human ASCs were isolated from a healthy person with a lipo-aspirated surgery. The abdomen subcutaneous adipose tissue was finely minced and then digested with 0.075 wt % collagenase type I at 37° C. for 45 min. The cells were then collected by filtration with a cell strainer with pore size of 100 μm diameter. The ASCs were expanded in basic DMEM medium. Upon reaching 80-90% confluence of human MSCs and ASCs, the cells were trypsinized, counted, and subcultured at a density of 10^5 cells/100 mm dish. The cells used for study were passage-2. For osteogenic differentiation, the cells were seeded at a cell density of 10^4 cells/cm2 on 12-well plates and 100-mm petri dishes. Upon reaching 70% confluence, counting as day-0, the cells were exposed to osteogenic differentiation medium supplemented with either 10 nM or 10 pM E2. The osteogenic differentiation medium consisted of basic medium supplemented with 100 nM dexamethasone, 10 mM β-glycerophosphate, and 0.05 mM ascorbic acid-2-phosphate. At the defined time, the cells were collected and analyzed for osteogenic gene expression and differentiation potentials.
(§2) The cultured cells in 12-well plates were washed twice with PBS, suspended and lysed in 1% Triton-X100 solution. The collected cells were subsequently homogenized using sonication. The DNA content was determined by a fluorometric assay (Bio-Rad). ALP and calcium content were measured by spectrophotometry with a calorimetric kit according to the manufacturers' instructions (Sigma).
(§3) RNA was extracted from differentiated cells using TRizol reagent (Invitrogen). 5 μg of total RNA was converted to single stranded cDNA using a commercial cDNA synthesis kit. Aliquots of the cDNA were amplified with Ampli-Taq DNA polymerase for ALP, osteocalcin (OCN), core binding factor alpha1 (cbfa1), peroxisome proliferator activated receptors gamma (PPARγ)-2, estrogen receptors (ER) alpha (α) and beta (β), and housekeeping gene GAPDH. 40 cycles were used, each consisting of 45 sec of denaturation at 95° C., 45 sec of annealing at 58° C., and 1 min of polymerization at 72° C.

human bone marrow MSCs = assay: Osteogenic differentiation of human bone marrow MSCs modulated by E2 (Example 1)
Text: as §1, §2, §3

human ASCs [2] = assay: Adipogenic differentiation of ASCs modulated by E2 (Example 2); conditions: for increase of elution of Oil-O-Red staining: vs differentiation without estrogen, FIG. 7C
Procedure: Because estrogen receptors (ERs) exist in adipose tissues (Dieudonne et al. (2004) Am J Physiol Cell Physiol. 286:C655-661), it is hypothesized that estrogen can also modulate the differentiation potentials of ASCs. All the experiments using human ASCs were performed under an approved IRB protocol of the University of Illinois at Chicago. Human abdomen subcutaneous adipose tissue was obtained from a healthy person with lipo-aspirated surgery. ASCs were isolated from adipose tissue according to previous studies (Hong et al. (2006) Cells Tissues Organs. 183 (3):133-40). Briefly, adipose tissue was finely minced and then digested with 0.075 wt % collagenase type I (Sigma, St Louis, Mo.) at 37° C. for 45 min with intermittent shaking. The cells were collected by filtration with a cell strainer with pore size of 100 μm diameter (Fisher Scientific, Barrington, Ill.). The harvested cells were cultured in a Dulbecco's Modified Eagle's Medium (DMEM), 15% fetal bovine serum (FBS) and 1% antibiotic-antimycotic at 10^6 cells/100 mm dish. Upon reaching 80-90% confluence, the isolated cells were trypsinized, counted, and subcultured at a density of 10^5 cells/100 mm dish as passage-1. The cells used for study are passage-3.
The basic DMEM medium supplemented with 50 nM of dexamethasone, […] and 5 mM of isobutyl-methylxanthine (IBMX) was used to differentiate ASCs into adipocytes (Hong et al. (2005) Ann Biomed Eng. 33:511-517). At 70% confluence of ASCs in 12-well plates, the basic DMEM medium was exchanged for the adipogenic differentiation medium. The effects of estrogen on adipogenic differentiation were observed after E2 supplements at concentrations ranging from 10^−8 to 10^−11M. On day 4, the cells were collected for analysis of adipogenic and ER gene expressions. On day 7, adipogenic differentiation of ASCs modulated by estrogen was analyzed by Oil-O-Red staining and quantitative measurements. Each treatment group included four samples.
On the defined day, cells cultured in 12-well plates were washed twice with phosphate buffered solution (PBS), suspended and lysed in 1% Triton-X100 solution (Sigma, St. Louis, Mo.). The collected cells were subsequently homogenized using sonication (Dismembrator Model 100, Fisher Scientific, Barrington, Ill.). The DNA content in the cells was determined by a fluorometric assay using a spectrofluorometer and DNA quantification kit (Hoechst 33258, Bio-Rad, Hercules, Calif.). The total protein concentrations of lysates were measured by a simple colorimetric assay based on the Bradford dye-binding procedure (Bio-Rad, Hercules, Calif.). The amount of protein was normalized by the unit of DNA.
After 7 days of incubation with adipogenic differentiation medium supplemented with different concentrations of E2, cultured cells were fixed in 10% neutral buffered formalin for 15 min and washed with PBS twice. Cells were immersed in a 60% Oil-O-Red solution in PBS (Sigma, St Louis, Mo.) for 60 min. In order to quantify adipogenic potentials, the images of Oil-O-Red stained at each well were randomly taken by a digital camera connected to a computer monitor. The Oil-O-Red positive cells on the screen were double-blindly counted. Five pictures were taken from each well. The cell numbers were normalized to per mm^2. Oil-O-Red dye then was eluted by 500 μl of 100% isopropanol for each well of cultured cells. The spectrophotometric absorbance of the resulting solution was quantified at 510 nm.
Total RNA was extracted from the various differentiated cells using TRizol reagent (Invitrogen, Carlsbad, Calif.). Approximately 5 μg of total RNA was converted to single stranded cDNA using a commercial cDNA synthesis kit (Invitrogen, Carlsbad, Calif.). […]

[3] = day 7, vs differentiation without estrogen supplement
[4] = osteogenic differentiation medium supplemented with E2 (10 nM or 10 pM)

SMILES: C[C@]12CC[C@@H]3c4ccc(O)cc4CC[C@H]3[C@@H]1CC[C@@H]2O [E2, 17-β estradiol]
- calcium content (human ASCs [1]; FIG. 2F): significantly increased
- ALP activities (human ASCs [1]; after 14 days, FIG. 2E): significantly improved
- OCN expression (RT-PCR) (human ASCs [1]; day 7, E2 10 nM): only densely expressed
- cbfa-1 expression (RT-PCR band) (human ASCs [1]; [3]): denser band
- cell proliferation (amount of DNA) during osteogenesis (human ASCs [1]; higher dose of E2, FIG. 2D): inhibits
- ALP and von Kossa staining (human ASCs [1]; [4]): denser color
- calcium content (human bone marrow MSCs; FIG. 2C): significantly increased
- ALP activities (human bone marrow MSCs; after 14 days, FIG. 2B): little statistical significance
- OCN expression (RT-PCR) (human bone marrow MSCs; day 7, E2 10 nM): only densely expressed
- cbfa-1 expression (RT-PCR band) (human bone marrow MSCs; [3]): denser band
- PPAR-γ2 expression (RT-PCR) (human bone marrow MSCs; day 7, vs standard osteogenic medium): inhibited
- cell proliferation (amount of DNA) during osteogenesis (human bone marrow MSCs; higher dose of E2, FIG. 2A): does not affect
- ALP and von Kossa staining (human bone marrow MSCs; [4]): denser color
- ERβ expression (RT-PCR) (human ASCs [2]; 4 days, FIG. 6): undetected
- ERα expression (RT-PCR) (human ASCs [2]; 4 days, no ERα band without E2 supplement, FIG. 6): expressed
- DNA amount (human ASCs [2]; 7 days adipogenic media with E2 supplements, FIG. 7A): decreased
- number of Oil-O-Red positively stained cells (human ASCs [2]; 7 days, FIG. 7B): increased
- population of lipid-containing cells (human ASCs [2]; ASCs after E2 supplement, Oil-O-Red staining): increased population
- increase of elution of Oil-O-Red staining (human ASCs [2]; estrogen 10^−8 M, 7 days): 33.9%
- increase of elution of Oil-O-Red staining (human ASCs [2]; estrogen 10^−9 M, 7 days): 25.5%
- effects on adipogenesis at low concentrations (human ASCs [2]; estrogen supplement at low concentrations): hardly observed
